{"source": "patent US20260284168A1", "about": "“RNA FOR PREVENTING OR TREATING TUBERCULOSIS” (priority 2023, published 2026)", "system": "Caspase-1", "format": "cell-based", "conditions": "50 μM"}
{"smiles": "CCO[C@@H]1OC(=O)C[C@@H]1NC(=O)[C@@H]1CCCN1C(=O)[C@@H](NC(=O)c1ccc(N)c(Cl)c1)C(C)(C)C", "note": "[VX765]", "values": [{"measurement": "effect of Caspase-1 inhibitor on IL-1β release", "value": "inhibited IL-1ß release"}]}
